According to patent publication US10975056B2 (GlaxoSmithKline Intellectual Property Development Limited, priority 2016, dated 2021):
Counter-ions that a name gives are not always drawn. Like-named read-outs stand apart in the source and are kept apart here.

Columns and labels:
DNMT1 = DNMT1 (Homo sapiens, UniProt P26358); assay: DNMT1 biochemical activity, breaklight assay and/or SPA assay
[1] = tested on: erythroid progenitor cells (EPCs); assay: Fetal hemoglobin (HbF) ELISA in day 7 erythroid progenitor cells; format: cell-based, human; details: Homo sapiens, Erythroid progenitor cell, read-out: EPC ELISA (pEC50 category) (converted);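 for EPC ELISA (pEC50 category): for fetal hemoglobin induction normalized to vehicle-treated cells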
Summary of the method: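 Day 7 EPCs from human bone marrow CD34+ cells were plated at 1,000 cells/well in media with 3 U/mL rhEPO. They were exposed to a 22-point dilution ([…]) for 5 days at 37 °C. Lysate HbF was measured by sandwich ELISA (OD450) and normalized to DMSO control wells.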

[2] = binned activity in either the breaklight or the SPA assay
[3] = breaklight assay and/or SPA assay, repeated experimental runs
[4] = binned activity in either the breaklight or the SPA assay, read-out: DNMT1 BioChemical (pIC50 category) (converted)
[5] = breaklight assay and/or SPA assay, repeated experimental runs, read-out: average pIC50 against DNMT1 (converted)

DNMT1, sequence (P26358 whole entry, looked up): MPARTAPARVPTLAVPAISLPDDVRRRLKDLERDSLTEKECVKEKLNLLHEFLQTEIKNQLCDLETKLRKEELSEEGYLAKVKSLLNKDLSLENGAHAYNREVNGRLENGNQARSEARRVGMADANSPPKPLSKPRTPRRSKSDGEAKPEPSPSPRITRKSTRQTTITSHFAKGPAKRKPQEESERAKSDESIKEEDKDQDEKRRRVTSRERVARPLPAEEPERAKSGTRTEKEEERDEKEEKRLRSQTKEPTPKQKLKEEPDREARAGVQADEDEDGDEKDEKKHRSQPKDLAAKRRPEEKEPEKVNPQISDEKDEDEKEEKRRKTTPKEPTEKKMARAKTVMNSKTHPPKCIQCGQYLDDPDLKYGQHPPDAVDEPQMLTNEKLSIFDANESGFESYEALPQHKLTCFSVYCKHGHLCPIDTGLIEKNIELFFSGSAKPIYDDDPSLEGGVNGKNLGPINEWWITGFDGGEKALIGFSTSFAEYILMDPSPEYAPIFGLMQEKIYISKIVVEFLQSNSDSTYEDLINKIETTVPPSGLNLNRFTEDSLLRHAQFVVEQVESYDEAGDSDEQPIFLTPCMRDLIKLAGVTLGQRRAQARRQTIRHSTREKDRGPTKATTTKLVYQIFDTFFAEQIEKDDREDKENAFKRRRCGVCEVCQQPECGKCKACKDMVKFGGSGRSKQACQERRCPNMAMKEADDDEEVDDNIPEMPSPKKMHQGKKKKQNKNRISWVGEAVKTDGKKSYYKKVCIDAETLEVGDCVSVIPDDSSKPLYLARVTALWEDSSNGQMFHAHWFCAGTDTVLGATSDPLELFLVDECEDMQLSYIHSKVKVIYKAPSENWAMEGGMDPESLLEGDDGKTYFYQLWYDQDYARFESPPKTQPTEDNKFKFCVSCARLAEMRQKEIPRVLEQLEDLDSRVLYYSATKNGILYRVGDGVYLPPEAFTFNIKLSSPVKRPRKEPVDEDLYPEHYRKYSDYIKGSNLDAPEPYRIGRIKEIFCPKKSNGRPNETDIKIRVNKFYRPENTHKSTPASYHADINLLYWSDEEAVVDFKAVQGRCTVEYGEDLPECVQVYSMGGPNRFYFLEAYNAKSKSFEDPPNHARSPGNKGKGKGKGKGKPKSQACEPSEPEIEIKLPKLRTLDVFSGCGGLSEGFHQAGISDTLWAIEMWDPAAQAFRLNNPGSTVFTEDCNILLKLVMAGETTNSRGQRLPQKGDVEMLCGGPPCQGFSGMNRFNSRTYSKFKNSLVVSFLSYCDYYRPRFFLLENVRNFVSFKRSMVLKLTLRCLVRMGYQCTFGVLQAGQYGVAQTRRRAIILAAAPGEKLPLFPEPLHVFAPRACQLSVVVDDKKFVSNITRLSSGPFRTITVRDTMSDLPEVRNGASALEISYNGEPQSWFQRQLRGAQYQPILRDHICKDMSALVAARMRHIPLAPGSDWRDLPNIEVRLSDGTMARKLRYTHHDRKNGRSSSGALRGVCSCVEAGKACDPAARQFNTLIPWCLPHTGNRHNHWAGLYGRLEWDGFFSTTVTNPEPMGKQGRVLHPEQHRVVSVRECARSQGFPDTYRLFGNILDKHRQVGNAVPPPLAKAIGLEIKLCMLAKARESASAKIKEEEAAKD

Compound | DNMT1 BioChemical (pIC50 category) (DNMT1; [2]) | EC50 ([1]; HbF ELISA, day 7 EPCs, 5 days) [nM] | average pIC50 against DNMT1 (DNMT1; [3]) | IC50 (DNMT1; [4]) [nM] | IC50 (DNMT1; [5]) [nM] | EC50 [1] [nM]
CCc1c(C#N)c(SC(C(N)=O)c2ccccc2)nc(N(C)CCNCC(C)(C)C)c1C#N (stereo not drawn) [Example 488, 2-((3,5-dicyano-4-ethyl-6-(methyl(2-(neopentylamino)ethyl)amino)pyridin-2-yl)thio)-2-phenylacetamide] | D (Category D: ≥6.5) | < 316 | – | – | – | –
CCc1c(C#N)c(SC(C(N)=O)c2ccccc2)nc(N2CCC(C3CCNC3)CC2)c1C#N (stereo not drawn) [Example 121, 2-((3,5-Dicyano-4-ethyl-6-(4-(pyrrolidin-3-yl)piperidin-1-yl)pyridin-2-yl)thio)-2-phenylacetamide; 2,2,2-trifluoroacetic acid] | D (Category D: ≥6.5) | 316 to 1000 | > 6.5 | – | – | –
CCc1c(C#N)c(SCc2ccc(CNC(=O)CN)cc2)nc(N2CCCN(C)CC2)c1C#N [Example 80, 2-Amino-N-(4-(((3,5-dicyano-4-ethyl-6-(4-methyl-1,4-diazepan-1-yl)pyridin-2-yl)thio)methyl)benzyl)acetamide] | D (Category D: ≥6.5) | 316 to 1000 | > 6.5 | – | – | –
CCc1c(C#N)c(SCc2ccc(NC(C)=O)cc2)nc(N2CCCN(C)CC2)c1C#N [Example 298, N-(4-(((3,5-Dicyano-4-ethyl-6-(4-methyl-1,4-diazepan-1-yl)pyridin-2-yl)thio)methyl)phenyl)acetamide] | D (Category D: ≥6.5) | < 316 | – | – | – | –
CCc1c(C#N)c(SC(C(N)=O)c2ccccc2)nc(N2CCC(N3CCC[C@@H]3CO)CC2)c1C#N (single isomer, unassigned) [Example 464] | D (Category D: ≥6.5) | < 316 | – | – | – | –
N#Cc1c(SC(C(N)=O)c2ccccc2)nc(N2CCC[C@@H](O)C2)c(C#N)c1C1CC1 (stereo partly drawn) [Example 32, 2-((3,5-dicyano-4-cyclopropyl-6-((R)-3-hydroxypiperidin-1-yl)pyridin-2-yl)thio)-2-phenylacetamide] | D (Category D: ≥6.5) | 1000 to 31600 | – | – | – | –
CCc1c(C#N)c(SCc2ccc(CNC(=O)OC(C)(C)C)cc2)nc(N2CCCN(C)CC2)c1C#N [Example 69, tert-Butyl 4-(((3,5-dicyano-4-ethyl-6-(4-methyl-1,4-diazepan-1-yl)pyridin-2-yl)thio)methyl)benzylcarbamate] | – | > 31600 | – | 1000 to 31600 | ≥ 1000 | –
CCc1c(C#N)c(SC(C(N)=O)c2ccccc2)nc(N2CCO[C@H](CNC(=O)C(C)(C)N)C2)c1C#N (stereo partly drawn) [Example 581, 2-amino-N-(((2R)-4-(6-((2-amino-2-oxo-1-phenylethyl)thio)-3,5-dicyano-4-ethylpyridin-2-yl)morpholin-2-yl)methyl)-2-methylpropanamide] | D (Category D: ≥6.5) | < 316 | – | – | – | –
CCc1c(C#N)c(SC(C(N)=O)c2ccccc2)nc(N(C)CC(=O)N2CCCC2)c1C#N (stereo not drawn) [Example 620, 2-((3,5-dicyano-4-ethyl-6-(methyl(2-oxo-2-(pyrrolidin-1-yl)ethyl)amino)pyridin-2-yl)thio)-2-phenylacetamide] | D (Category D: ≥6.5) | < 316 | – | – | – | –
CCc1c(C#N)c(SC(C(N)=O)c2ccccc2)nc(N2CCC3(CCNC3)CC2)c1C#N.O=C(O)C(F)(F)F (stereo not drawn) [Example 17, 2-((3,5-dicyano-4-ethyl-6-(2,8-diazaspiro[4.5]decan-8-yl)pyridin-2-yl)thio)-2-phenylacetamide; 2,2,2-trifluoroacetic acid] | D (Category D: ≥6.5) | – | – | – | – | < 316
CCc1c(C#N)c(SC(C(N)=O)c2ccccc2)nc(N2CC[C@@H](NC(=O)OC(C)(C)C)[C@@H](F)C2)c1C#N (single isomer, unassigned) [Example 534, rel-tert-butyl (cis)-1-(6-((2-amino-2-oxo-1-phenylethyl)thio)-3,5-dicyano-4-ethylpyridin-2-yl)-3-fluoropiperidin-4-yl)carbamate] | – | < 316 | – | < 316 | – | –
CCc1c(C#N)c(SC(C(N)=O)c2ccccc2)nc(N(C)CCOP(=O)(O)O)c1C#N (stereo not drawn) [Example 151, 2-((6-((2-Amino-2-oxo-1-phenylethyl)thio)-3,5-dicyano-4-ethylpyridin-2-yl)(methyl)amino)ethyl dihydrocien phosphate] | – | > 31600 | – | 1000 to 31600 | – | –
CCc1c(C#N)c(SC(C(N)=O)c2ccccc2)nc(N(C)CCN2CC[C@@H](N(C)C)C2)c1C#N (stereo partly drawn) [Example 516, 2-((3,5-dicyano-6-((2-((R)-3-(dimethylamino)pyrrolidin-1-yl)ethyl)(methyl)amino)-4-ethylpyridin-2-yl)thio)-2-phenylacetamide] | D (Category D: ≥6.5) | < 316 | – | – | – | –
CCc1c(C#N)c(SC(C(N)=O)c2ccccc2)nc(N2CCC(N3CCC(N)C3=O)CC2)c1C#N (stereo not drawn) [Example 270] | D (Category D: ≥6.5) | 1000 to 31600 | – | – | – | –
CCc1c(C#N)c(SC(C(N)=O)c2ccccc2)nc(N2CC(CC(N)=O)C2)c1C#N (stereo not drawn) [Example 330, 2-((6-(3-(2-Amino-2-oxoethyl)azetidin-1-yl)-3,5-dicyano-4-ethylpyridin-2-yl)thio)-2-phenylacetamide] | D (Category D: ≥6.5) | 1000 to 31600 | – | – | – | –
CCc1c(C#N)c(SC(C(N)=O)c2ccccc2)nc(N(C)CC(=O)NCC2(CO)CC2)c1C#N (stereo not drawn) [Example 673, 2-((6-((2-amino-2-oxo-1-phenylethyl)thio)-3,5-dicyano-4-ethylpyridin-2-yl)(methyl)amino)-N-((1-(hydroxymethyl)cyclopropyl)methyl)acetamide] | D (Category D: ≥6.5) | < 316 | – | – | – | –
CCc1c(C#N)c(SCc2ccc(NC(=O)CN)cc2)nc(N2CCCN(C)CC2)c1C#N [Example 302, 2-Amino-N-(4-(((3,5-dicyano-4-ethyl-6-(4-methyl-1,4-diazepan-1-yl)pyridin-2-yl)thio)methyl)phenyl)acetamide] | – | > 31600 | – | 316 to 1000 | – | –
CCc1c(C#N)c(SCc2ccc(/C=C/C(=O)O)cc2)nc(N(C)C)c1C#N [Example 102, (E)-3-(4-(((3,5-Dicyano-6-(dimethylamino)-4-ethylpyridin-2-yl)thio)methyl)phenyl)acrylic acid, Trifluoroacetic Acid Salt] | – | > 31600 | – | 1000 to 31600 | ≥ 1000 | –
CCc1c(C#N)c(SCc2ccc(N(C)C(C)=O)cc2)nc(N2CCCN(C)CC2)c1C#N [Example 354, N-(4-(((3,5-Dicyano-4-ethyl-6-(4-methyl-1,4-diazepan-1-yl)pyridin-2-yl)thio)methyl)phenyl)-N-methylacetamide] | – | 1000 to 31600 | – | 316 to 1000 | – | –
CCc1c(C#N)c(SC(C(N)=O)c2ccccn2)nc(N2CC[C@H](O)C2)c1C#N (stereo partly drawn) [Example 322, 2-((3,5-Dicyano-4-ethyl-6-((S)-3-hydroxypyrrolidin-1-yl)pyridin-2-yl)thio)-2-(pyridin-2-yl)acetamide] | D (Category D: ≥6.5) | 316 to 1000 | – | – | – | –
CCc1c(C#N)c(SC(C(N)=O)c2cccc(P(C)(C)=O)c2)nc(N2CC[C@H](O)C2)c1C#N (stereo partly drawn) [Example 420, 2-((3,5-Dicyano-4-ethyl-6-((S)-3-hydroxypyrrolidin-1-yl)pyridin-2-yl)thio)-2-(3-(dimethylphosphoryl)phenyl)acetamide] | – | 1000 to 31600 | – | 316 to 1000 | – | –
CCc1c(C#N)c(SCc2ccc(NS(C)(=O)=O)c(F)c2)nc(N2CCCN(C)CC2)c1C#N [Example 361, N-(4-(((3,5-Dicyano-4-ethyl-6-(4-methyl-1,4-diazepan-1-yl)pyridin-2-yl)thio)methyl)-2-fluorophenyl)methanesulfonamide] | – | 1000 to 31600 | – | 316 to 1000 | – | –
CCc1c(C#N)c(SC(C(N)=O)c2ccc(F)cc2F)nc(N2CCC(N(C)C)CC2)c1C#N (stereo not drawn) [Example 210, 2-((3,5-Dicyano-6-(4-(dimethylamino)piperidin-1-yl)-4-ethylpyridin-2-yl)thio)-2-(2,4-difluorophenyl)acetamide] | D (Category D: ≥6.5) | < 316 | – | – | – | –
CCOc1c(C#N)c(C)nc(SC(C(N)=O)c2ccccc2)c1C#N (stereo not drawn) [Example 342, 2-((3,5-Dicyano-4-ethoxy-6-methylpyridin-2-yl)thio)-2-phenylacetamide] | – | > 31600 | – | 316 to 1000 | – | –
CCc1c(C#N)c(SCc2ccc(N(C)S(C)(=O)=O)cc2)nc(N2CCOC(CN(CC)CC)C2)c1C#N (stereo not drawn) [Example 580, N-(4-(((3,5-dicyano-6-(2-((diethylamino)methyl)morpholino)-4-ethylpyridin-2-yl)thio)methyl)phenyl)-N-methylmethanesulfonamide] | D (Category D: ≥6.5) | < 316 | – | – | – | –
CCc1c(C#N)c(SC(C(N)=O)c2ccc(S(=O)(=O)NC)cc2)nc(N(C)C)c1C#N (stereo not drawn) [Example 402] | D (Category D: ≥6.5) | 1000 to 31600 | – | – | – | –
CCc1c(C#N)c(SC(C(N)=O)c2ccccc2)nc(N2CCC(NC)C2)c1C#N (stereo not drawn) [Example 521, 2-((3,5-dicyano-4-ethyl-6-(3-(methylamino)pyrrolidin-1-yl)pyridin-2-yl)thio)-2-phenylacetamide] | D (Category D: ≥6.5) | < 316 | – | – | – | –
CCc1c(C#N)c(SCc2ccc(CNC(=O)CN)cc2)nc(N(C)C)c1C#N [Example 268, 2-Amino-N-(4-(((3,5-dicyano-6-(dimethylamino)-4-ethylpyridin-2-yl)thio)methyl)benzyl)acetamide] | – | 1000 to 31600 | – | 1000 to 31600 | – | –
